Experimental data: patent publication US20240158446A1, “CYCLIC COMPOUND HAVING SELECTIVE INHIBITORY ACTION ON KRAS OVER HRAS AND NRAS” (CHUGAI SEIYAKU KABUSHIKI KAISHA, priority 2021, published 2024)
Where a SMILES comes first, the peptide text is derived from it. Bridges are numbered along the chain shown (N, C = ends). [ ]: non-standard residue; d: D form. The star is where a group is joined. hPhe(3-Cl-4-CF3) = N[C@@H](CCc1ccc(C(F)(F)F)c(Cl)c1)C(=O)O; NPrPhe(4-CF3) = CCCN[C@@H](Cc1ccc(C(F)(F)F)cc1)C(=O)O; Pip(4,4-F2) = O=C(O)[C@@H]1CC(F)(F)CCN1; NMeGly(cPent) = CN[C@H](C(=O)O)C1CCCC1; Pro(4,4-F2) = O=C(O)[C@@H]1CC(F)(F)CN1; Hyp = O=C(O)[C@@H]1C[C@@H](O)CN1; NMeD = CN[C@@H](CC(=O)O)C(=O)O; NMeL = CN[C@@H](CC(C)C)C(=O)O; Morpholide = C1CN(*)CCO1; Ac5c = NC1(C(=O)O)CCCC1; Aze = O=C(O)[C@@H]1CCN1; Ac4c = NC1(C(=O)O)CCC1; NPrGly = CCCNCC(=O)O; Sar = CNCC(=O)O

Tests used:
[1] = biological target: GDP-bound KRAS wild-type protein (Homo sapiens, UniProt P01116); experiment: Binding to KRAS by surface plasmon resonance (SPR), Single Cycle Kinetics; settings: SPR Single Cycle Kinetics, GDP-bound KRAS wild-type protein, 1:1 binding model; read-out: KRAS KD
Sequence of GDP-bound KRAS wild-type protein (P01116 whole entry): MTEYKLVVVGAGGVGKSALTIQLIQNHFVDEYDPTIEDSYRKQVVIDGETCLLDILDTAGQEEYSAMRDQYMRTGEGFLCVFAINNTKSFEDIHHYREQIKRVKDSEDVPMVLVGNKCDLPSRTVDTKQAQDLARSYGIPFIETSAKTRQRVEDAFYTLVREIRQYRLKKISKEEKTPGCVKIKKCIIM

[2] = biological target: GDP-bound NRAS wild-type protein (Homo sapiens, UniProt P01111); experiment: Binding to NRAS by surface plasmon resonance (SPR), Single Cycle Kinetics; settings: SPR, GDP-bound NRAS wild-type protein vs GDP-bound KRAS wild-type protein
Sequence of GDP-bound NRAS wild-type protein (P01111 whole entry): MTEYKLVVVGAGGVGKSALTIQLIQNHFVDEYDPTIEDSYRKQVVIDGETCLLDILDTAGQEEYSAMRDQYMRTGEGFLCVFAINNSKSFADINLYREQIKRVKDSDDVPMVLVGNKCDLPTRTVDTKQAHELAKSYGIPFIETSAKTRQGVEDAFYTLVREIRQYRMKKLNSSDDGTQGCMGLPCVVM

[3] = biological target: GDP-bound HRAS wild-type protein (Homo sapiens, UniProt P01112); experiment: Binding to HRAS by surface plasmon resonance (SPR), Single Cycle Kinetics; settings: SPR, GDP-bound HRAS wild-type protein vs GDP-bound KRAS wild-type protein
Sequence of GDP-bound HRAS wild-type protein (P01112 whole entry): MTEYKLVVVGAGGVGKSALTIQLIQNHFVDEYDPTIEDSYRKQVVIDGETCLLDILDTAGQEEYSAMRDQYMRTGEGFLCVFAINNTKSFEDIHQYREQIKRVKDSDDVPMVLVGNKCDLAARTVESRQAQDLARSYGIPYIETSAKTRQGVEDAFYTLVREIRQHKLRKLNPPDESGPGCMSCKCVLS

Row | SMILES | Kd [1] [pM] | NRAS/KRAS (ratio of KD value for NRAS to KD value for KRAS) [2] | HRAS/KRAS (ratio of KD value for HRAS to KD value for KRAS) [3]
1 | CCCN1C(=O)CN(C)C(=O)[C@@H]2CCN2C(=O)[C@H]([C@@H](C)CC)NC(=O)[C@H](CC(C)C)N(C)C(=O)C[C@@H](C(=O)N2CCOCC2)N(C)C(=O)[C@H](C2CCCC2)N(C)C(=O)C2(CCCC2)NC(=O)[C@@H]2CC(F)(F)CCN2C(=O)[C@H](CCc2ccc(C(F)(F)F)c(Cl)c2)NC(=O)CN(C)C(=O)[C@@H]1Cc1ccc(C(F)(F)F)cc1 [PP0312] ([NMeL]I[Aze][Sar][NPrPhe(4-CF3)][Sar][hPhe(3-Cl-4-CF3)][Pip(4,4-F2)][Ac5c][NMeGly(cPent)][NMeD]-Morpholide; lactam N-11) | 3400 | B (a compound having 3 or more and less than 10 is denoted as B) | B (a compound having 3 or more and less than 10 is denoted as B)
2 | CCCN1C(=O)CN(C)C(=O)[C@@H]2CCN2C(=O)[C@H]([C@@H](C)CC)NC(=O)[C@H](CC(C)C)N(C)C(=O)C[C@@H](C(=O)N2CCOCC2)N(C)C(=O)[C@H](C2CCCC2)N(C)C(=O)C2(CCCC2)NC(=O)CN(C)C(=O)[C@H](CCc2ccc(C(F)(F)F)c(Cl)c2)NC(=O)CN(C)C(=O)[C@@H]1Cc1ccc(C(F)(F)F)cc1 [PP0314] ([NMeL]I[Aze][Sar][NPrPhe(4-CF3)][Sar][hPhe(3-Cl-4-CF3)][Sar][Ac5c][NMeGly(cPent)][NMeD]-Morpholide; lactam N-11) | 1600 | B (a compound having 3 or more and less than 10 is denoted as B) | C (A compound having a KD ratio of 0.1 or more and less than 3 is denoted as C)
3 | CCCN1CC(=O)NC2(CCCC2)C(=O)N(C)[C@@H](C2CCCC2)C(=O)N(C)[C@H](C(=O)N2CCOCC2)CC(=O)N(C)[C@@H](CC(C)C)C(=O)N[C@@H]([C@@H](C)CC)C(=O)N2CC[C@H]2C(=O)N(C)CC(=O)N(CCC)[C@@H](Cc2ccc(C(F)(F)F)cc2)C(=O)N(C)CC(=O)N[C@@H](CCc2ccc(C(F)(F)F)c(Cl)c2)C1=O [PP0315] ([NMeL]I[Aze][Sar][NPrPhe(4-CF3)][Sar][hPhe(3-Cl-4-CF3)][NPrGly][Ac5c][NMeGly(cPent)][NMeD]-Morpholide; lactam N-11) | 3800 | B (a compound having 3 or more and less than 10 is denoted as B) | B (a compound having 3 or more and less than 10 is denoted as B)
4 | CC[C@H](C)[C@@H]1NC(=O)[C@H](CC(C)C)N(C)C(=O)C[C@@H](C(=O)N2CCOCC2)N(C)C(=O)[C@H](C2CCCC2)N(C)C(=O)C2(CCCC2)NC(=O)[C@@H]2CCCN2C(=O)[C@H](CCc2ccc(C(F)(F)F)c(Cl)c2)NC(=O)CN(C)C(=O)[C@H](Cc2ccc(C)cc2)N2CCCC[C@@H](C2=O)N(C)C(=O)CN(C)C1=O [PP0316] | 54 | C (A compound having a KD ratio of 0.1 or more and less than 3 is denoted as C) | B (a compound having 3 or more and less than 10 is denoted as B)
5 | CC[C@H](C)[C@@H]1NC(=O)[C@H](CC(C)C)N(C)C(=O)C[C@@H](C(=O)N2CCOCC2)N(C)C(=O)[C@H](C2CCCC2)N(C)C(=O)C2(CCCC2)NC(=O)[C@@H]2CCCN2C(=O)[C@H](CCc2ccc(C(F)(F)F)c(Cl)c2)NC(=O)CN(C)C(=O)[C@H](Cc2ccc(C)cc2)N2CCCCC[C@@H](C2=O)N(C)C(=O)CN(C)C1=O [PP0317] | 860 | B (a compound having 3 or more and less than 10 is denoted as B) | B (a compound having 3 or more and less than 10 is denoted as B)
6 | CC[C@H](C)[C@@H]1NC(=O)[C@H](CC(C)C)N(C)C(=O)C[C@@H](C(=O)N2CCOCC2)N(C)C(=O)[C@H](C2CCCC2)N(C)C(=O)C2(CCCC2)NC(=O)[C@@H]2CCCN2C(=O)[C@H](CCc2ccc(C(F)(F)F)c(Cl)c2)NC(=O)CN(C)C(=O)[C@H](Cc2ccc(C(F)(F)F)cc2)N2CCCC[C@@H](C2=O)N(C)C(=O)CN(C)C1=O [PP0318] | 34 | B (a compound having 3 or more and less than 10 is denoted as B) | B (a compound having 3 or more and less than 10 is denoted as B)
7 | CCCN1C(=O)CN(C)C(=O)CN(C)C(=O)[C@H]([C@@H](C)CC)NC(=O)[C@H](CC(C)C)N(C)C(=O)C[C@@H](C(=O)N2CCOCC2)NC(=O)[C@H](C2CCCC2)N(C)C(=O)C2(CCC2)NC(=O)[C@@H]2CCCN2C(=O)[C@H](CCc2ccc(C(F)(F)F)c(Cl)c2)NC(=O)CN(C)C(=O)[C@@H]1Cc1ccc(C(F)(F)F)cc1 [PP0320] ([NMeL]I[Sar][Sar][NPrPhe(4-CF3)][Sar][hPhe(3-Cl-4-CF3)]P[Ac4c][NMeGly(cPent)]D-Morpholide; lactam N-11) | 900 | B (a compound having 3 or more and less than 10 is denoted as B) | B (a compound having 3 or more and less than 10 is denoted as B)
8 | CCCN1C(=O)CN(C)C(=O)CN(C)C(=O)[C@H]([C@@H](C)CC)NC(=O)[C@H](CC(C)C)N(C)C(=O)C[C@@H](C(=O)N2CCOCC2)NC(=O)[C@H](C2CCCC2)N(C)C(=O)C2(CCCC2)NC(=O)[C@@H]2CC(F)(F)CN2C(=O)[C@H](CCc2ccc(C(F)(F)F)c(Cl)c2)NC(=O)CN(C)C(=O)[C@@H]1Cc1ccc(C(F)(F)F)cc1 [PP0321] ([NMeL]I[Sar][Sar][NPrPhe(4-CF3)][Sar][hPhe(3-Cl-4-CF3)][Pro(4,4-F2)][Ac5c][NMeGly(cPent)]D-Morpholide; lactam N-11) | 1000 | B (a compound having 3 or more and less than 10 is denoted as B) | B (a compound having 3 or more and less than 10 is denoted as B)
9 | CCCN1C(=O)CN(C)C(=O)CN(C)C(=O)[C@H]([C@@H](C)CC)NC(=O)[C@H](CC(C)C)N(C)C(=O)C[C@@H](C(=O)N2CCOCC2)NC(=O)[C@H](C2CCCC2)N(C)C(=O)C2(CCC2)NC(=O)[C@@H]2CC(F)(F)CN2C(=O)[C@H](CCc2ccc(C(F)(F)F)c(Cl)c2)NC(=O)CN(C)C(=O)[C@@H]1Cc1ccc(C(F)(F)F)cc1 [PP0322] ([NMeL]I[Sar][Sar][NPrPhe(4-CF3)][Sar][hPhe(3-Cl-4-CF3)][Pro(4,4-F2)][Ac4c][NMeGly(cPent)]D-Morpholide; lactam N-11) | 840 | B (a compound having 3 or more and less than 10 is denoted as B) | C (A compound having a KD ratio of 0.1 or more and less than 3 is denoted as C)
10 | CCCN1C(=O)CN(C)C(=O)CN(C)C(=O)[C@H]([C@@H](C)CC)NC(=O)[C@H](CC(C)C)N(C)C(=O)C[C@@H](C(=O)N2CCOCC2)NC(=O)[C@H](C2CCCC2)N(C)C(=O)C2(CCCC2)NC(=O)[C@@H]2C[C@@H](OCC)CN2C(=O)[C@H](CCc2ccc(C(F)(F)F)c(Cl)c2)NC(=O)CN(C)C(=O)[C@@H]1Cc1ccc(C(F)(F)F)cc1 [PP0323] ([NMeL]I[Sar][Sar][NPrPhe(4-CF3)][Sar][hPhe(3-Cl-4-CF3)][Hyp](Et)[Ac5c][NMeGly(cPent)]D-Morpholide; lactam N-11) | 250 | B (a compound having 3 or more and less than 10 is denoted as B) | B (a compound having 3 or more and less than 10 is denoted as B)
11 | CCCN1C(=O)CN(C)C(=O)CN(C)C(=O)[C@H]([C@@H](C)CC)NC(=O)[C@H](CC(C)C)N(C)C(=O)C[C@@H](C(=O)N2CCOCC2)NC(=O)[C@H](C2CCCC2)N(C)C(=O)C2(CCC2)NC(=O)[C@@H]2C[C@@H](OCC)CN2C(=O)[C@H](CCc2ccc(C(F)(F)F)c(Cl)c2)NC(=O)CN(C)C(=O)[C@@H]1Cc1ccc(C(F)(F)F)cc1 [PP0324] ([NMeL]I[Sar][Sar][NPrPhe(4-CF3)][Sar][hPhe(3-Cl-4-CF3)][Hyp](Et)[Ac4c][NMeGly(cPent)]D-Morpholide; lactam N-11) | 410 | B (a compound having 3 or more and less than 10 is denoted as B) | B (a compound having 3 or more and less than 10 is denoted as B)
12 | CCCN1C(=O)CN(C)C(=O)CNC(=O)[C@H]([C@@H](C)CC)NC(=O)[C@H](CC(C)C)N(C)C(=O)C[C@@H](C(=O)N2CCOCC2)NC(=O)[C@H](C2CCCC2)N(C)C(=O)C2(CCCC2)NC(=O)[C@@H]2CCCN2C(=O)[C@H](CCc2ccc(C(F)(F)F)c(Cl)c2)NC(=O)CN(C)C(=O)[C@@H]1Cc1ccc(C(F)(F)F)cc1 [PP0325] ([NMeL]IG[Sar][NPrPhe(4-CF3)][Sar][hPhe(3-Cl-4-CF3)]P[Ac5c][NMeGly(cPent)]D-Morpholide; lactam N-11) | 1100 | B (a compound having 3 or more and less than 10 is denoted as B) | B (a compound having 3 or more and less than 10 is denoted as B)
13 | CCCN1C(=O)CN(C)C(=O)CNC(=O)[C@H]([C@@H](C)CC)NC(=O)[C@H](CC(C)C)N(C)C(=O)C[C@@H](C(=O)N2CCOCC2)NC(=O)[C@H](C2CCCC2)N(C)C(=O)C2(CCC2)NC(=O)[C@@H]2CCCN2C(=O)[C@H](CCc2ccc(C(F)(F)F)c(Cl)c2)NC(=O)CN(C)C(=O)[C@@H]1Cc1ccc(C(F)(F)F)cc1 [PP0326] ([NMeL]IG[Sar][NPrPhe(4-CF3)][Sar][hPhe(3-Cl-4-CF3)]P[Ac4c][NMeGly(cPent)]D-Morpholide; lactam N-11) | 1500 | B (a compound having 3 or more and less than 10 is denoted as B) | B (a compound having 3 or more and less than 10 is denoted as B)
